Among the data in PubChem BioAssay AID1259407 (Chemical Carcinogenesis Research Information System (CCRIS), 2018) are mutagenic call values, retold here.

Calls of active or inactive are those of the source. How the calls were made is not given here.

For this series, the system named is CCRIS mutagenicity, Ames/micronucleus/aberration tests. The series can be described thus: CCRIS mutagenicity studies.
[1] abbreviates: Test System: AMES SALMONELLA TYPHIMURIUM, Strain/Indicator: TA98, Metabolic Activation: NONE, Method: STANDARD PLATE.
Where [2] appears, read: Test System: AMES SALMONELLA TYPHIMURIUM, Strain/Indicator: TA100, Metabolic Activation: NONE, Method: STANDARD PLATE.
[3] abbreviates: Test System: AMES SALMONELLA TYPHIMURIUM, Strain/Indicator: TA98, Metabolic Activation: NONE, Method: PREINCUBATION
The mark [4] stands for this setting: Test System: AMES SALMONELLA TYPHIMURIUM, Strain/Indicator: TA100, Metabolic Activation: NONE, Method: PREINCUBATION
Where [5] appears, read: Test System: AMES SALMONELLA TYPHIMURIUM, Strain/Indicator: TA1535, Metabolic Activation: NONE, Method: PREINCUBATION
Setting [6] is: Test System: AMES SALMONELLA TYPHIMURIUM, Strain/Indicator: TA1537, Metabolic Activation: NONE, Method: PREINCUBATION

As for `Oc1ccc(O)c(-c2ccccc2)c1`, the mutagenic call (Test System: CHINESE HAMSTER V-79, Strain/Indicator: V-79 (HGPRT)/6-THIOGUANINE, Metabolic Activation: NONE) was “inactive; negative”.
With `CC(O)CN(N=O)C(N)=O` (centres undefined), the mutagenic call is “active; positive” (Test System: E. COLI B, Strain/Indicator: H/R30R, Metabolic Activation: NONE) and “active; positive” (Test System: E. COLI B, Strain/Indicator: HS30R, Metabolic Activation: NONE).
`CC(=O)OCc1c2ccccc2c2ccc3cccc4ccc1c2c43`: the mutagenic call is, setting by setting: under setting [1], “active; positive”; under setting [2], “active; positive”.
As for `Clc1ccccc1`, the mutagenic call is “inactive; negative” (End Point: IN VITRO CHROMOSOMAL ABERRATIONS, Test System: CHO CELLS, Metabolic Activation: NONE); “inactive; negative; previous trial yielded a positive response at 150 ug/ml but no dose-re” (End Point: IN VITRO CHROMOSOMAL ABERRATIONS, Test System: CHO CELLS, Metabolic Activation: RAT, LIVER, S-9, AROCLOR 1254); “inactive; negative” (Test System: AMES SALMONELLA TYPHIMURIUM, Strain/Indicator: TA98, Metabolic Activation: HAMSTER, LIVER, S-9, AROCLOR 1254, Method: PREINCUBATION); “inactive; negative” under setting [3]; “inactive; negative” (Test System: AMES SALMONELLA TYPHIMURIUM, Strain/Indicator: TA98, Metabolic Activation: RAT, LIVER, S-9, AROCLOR 1254, Method: PREINCUBATION); “inactive; negative” (Test System: AMES SALMONELLA TYPHIMURIUM, Strain/Indicator: TA100, Metabolic Activation: HAMSTER, LIVER, S-9, AROCLOR 1254, Method: PREINCUBATION). Moreover, the mutagenic call runs as follows: under setting [4], “inactive; negative”; (Test System: AMES SALMONELLA TYPHIMURIUM, Strain/Indicator: TA100, Metabolic Activation: RAT, LIVER, S-9, AROCLOR 1254, Method: PREINCUBATION) “inactive; negative”; (Test System: AMES SALMONELLA TYPHIMURIUM, Strain/Indicator: TA1535, Metabolic Activation: HAMSTER, LIVER, S-9, AROCLOR 1254, Method: PREINCUBATION) “inactive; negative”; under setting [5], “inactive; negative”; (Test System: AMES SALMONELLA TYPHIMURIUM, Strain/Indicator: TA1535, Metabolic Activation: RAT, LIVER, S-9, AROCLOR 1254, Method: PREINCUBATION) “inactive; negative”; (Test System: AMES SALMONELLA TYPHIMURIUM, Strain/Indicator: TA1537, Metabolic Activation: HAMSTER, LIVER, S-9, AROCLOR 1254, Method: PREINCUBATION) “inactive; negative”. Also, the mutagenic call runs as follows: under setting [6], “inactive; negative”; (Test System: AMES SALMONELLA TYPHIMURIUM, Strain/Indicator: TA1537, Metabolic Activation: RAT, LIVER, S-9, AROCLOR 1254, Method: PREINCUBATION) “inactive; negative”.
Regarding `COc1nsc2cc(N)ccc12`, the mutagenic call (Test System: AMES SALMONELLA TYPHIMURIUM, Strain/Indicator: TA98, Metabolic Activation: S-9, Method: STANDARD PLATE) was “active; positive”.
Take `C/C=C1\CC(C)C(C)(OC(C)=O)C(=O)OCC2=C3C(CC[N+]3(C)C=C2)OC1=O` (centres undefined): the mutagenic call was “active; positive” (Test System: AMES SALMONELLA TYPHIMURIUM, Strain/Indicator: TA100, Metabolic Activation: HAMSTER, LIVER, S-9, PCB, Method: PREINCUBATION) and “active; positive” (Test System: AMES SALMONELLA TYPHIMURIUM, Strain/Indicator: TA100, Metabolic Activation: RAT, LIVER, S-9, PCB, Method: PREINCUBATION).
Regarding `CC(O)COC(C)(C)C` (centres undefined), the mutagenic call was “inactive; negative” (End Point: IN VITRO CHROMOSOMAL ABERRATIONS, Test System: CHO, Metabolic Activation: NONE); “inactive; negative” (End Point: IN VITRO CHROMOSOMAL ABERRATIONS, Test System: CHO, Metabolic Activation: S-9); “active; positive (weak)” (End Point: IN VIVO MICRONUCLEUS, Test System: PERIPHERAL BLOOD ERYTHROCYTES, Species: MOUSE, Strain/Sex: B6C3F1/FEMALE, Route: INHALATION); “inactive; negative” (End Point: IN VIVO MICRONUCLEUS, Test System: PERIPHERAL BLOOD ERYTHROCYTES, Species: MOUSE, Strain/Sex: B6C3F1/MALE, Route: INHALATION); “inactive; negative” (Test System: AMES SALMONELLA TYPHIMURIUM, Strain/Indicator: TA97, Metabolic Activation: HAMSTER, LIVER, S-9 (30%), AROCLOR 1254, Method: PREINCUBATION); “active; positive” (Test System: AMES SALMONELLA TYPHIMURIUM, Strain/Indicator: TA97, Metabolic Activation: NONE, Method: PREINCUBATION). For the same compound, the mutagenic call (Test System: AMES SALMONELLA TYPHIMURIUM, Strain/Indicator: TA97, Metabolic Activation: RAT, LIVER, S-9 (30%), AROCLOR 1254, Method: PREINCUBATION) is “inactive; negative”; the mutagenic call (Test System: AMES SALMONELLA TYPHIMURIUM, Strain/Indicator: TA98, Metabolic Activation: HAMSTER, LIVER, S-9 (30%), AROCLOR 1254, Method: PREINCUBATION) was “inactive; negative”; the mutagenic call under setting [3] is “inactive; negative”; the mutagenic call (Test System: AMES SALMONELLA TYPHIMURIUM, Strain/Indicator: TA98, Metabolic Activation: RAT, LIVER, S-9 (30%), AROCLOR 1254, Method: PREINCUBATION) was “inactive; negative”; the mutagenic call (Test System: AMES SALMONELLA TYPHIMURIUM, Strain/Indicator: TA100, Metabolic Activation: HAMSTER, LIVER, S-9 (30%), AROCLOR 1254, Method: PREINCUBATION) is “inactive; negative”; the mutagenic call under setting [4] is “inactive; negative”. The mutagenic call is “inactive; negative” (Test System: AMES SALMONELLA TYPHIMURIUM, Strain/Indicator: TA100, Metabolic Activation: RAT, LIVER, S-9 (30%), AROCLOR 1254, Method: PREINCUBATION); “inactive; negative” (Test System: AMES SALMONELLA TYPHIMURIUM, Strain/Indicator: TA1535, Metabolic Activation: HAMSTER, LIVER, S-9 (30%), AROCLOR 1254, Method: PREINCUBATION); “inactive; negative” under setting [5]; “inactive; negative” (Test System: AMES SALMONELLA TYPHIMURIUM, Strain/Indicator: TA1535, Metabolic Activation: RAT, LIVER, S-9 (30%), AROCLOR 1254, Method: PREINCUBATION); “inactive; negative” under setting [6].
In the case of `Cc1cc2ccccc2c2ccc3c(c12)[C@@H]1O[C@@H]1[C@H](O)[C@H]3O`, the mutagenic call runs as follows: under setting [4], “active; positive”; under setting [2], “active; positive”.
For the compound `O=C(O)COc1ccc2ccccc2c1`, the mutagenic call is “inactive; negative” (Test System: AMES SALMONELLA TYPHIMURIUM, Strain/Indicator: TA97, Metabolic Activation: NONE, Method: STANDARD PLATE); “inactive; negative” (Test System: AMES SALMONELLA TYPHIMURIUM, Strain/Indicator: TA97, Metabolic Activation: RAT, LIVER, S-9, AROCLOR 1254, Method: STANDARD PLATE); “inactive; negative” under setting [1]; “inactive; negative” (Test System: AMES SALMONELLA TYPHIMURIUM, Strain/Indicator: TA98, Metabolic Activation: RAT, LIVER, S-9, AROCLOR 1254, Method: STANDARD PLATE); “inactive; negative” under setting [2]; “inactive; negative” (Test System: AMES SALMONELLA TYPHIMURIUM, Strain/Indicator: TA100, Metabolic Activation: RAT, LIVER, S-9, AROCLOR 1254, Method: STANDARD PLATE). The mutagenic call by setting is: (Test System: AMES SALMONELLA TYPHIMURIUM, Strain/Indicator: TA1535, Metabolic Activation: NONE, Method: STANDARD PLATE) “inactive; negative”; (Test System: AMES SALMONELLA TYPHIMURIUM, Strain/Indicator: TA1535, Metabolic Activation: RAT, LIVER, S-9, AROCLOR 1254, Method: STANDARD PLATE) “inactive; negative”.
